# Assay results: patent publication US20100009956A1, “NOVEL SUBSTITUTED PYRIMIDINES AS CYSTEINE PROTEASE INHIBITORS” (Glaxo Group Limited , a corporation, priority 2006, published 2010)
# Counter-ions that a name gives are not always drawn. Like-named read-outs stand apart in the source and are kept apart here.
# Legend:
# Format in all cases: biochemical
# [1] = molecular target: Falcipain-2 (Plasmodium falciparum, UniProt Q8I6U4); assay: Falcipain-2 enzymatic assay (assay 1)
# Procedure: (§1) Assay 1) Determination of Falcipain-2, Falcipain-3, Vivapain-2, Cathepsin K Cathepsin S, Cathepsin L, and Cathepsin B Proteolytic Catalytic Activity
# (§2) Assays for Falcipain-2, Falcipain-3, and Vivapain-2 are carried out with parasitic recombinant enzymes. Cathepsins K, S, L, and B are carried out with human recombinant enzymes. Standard assay conditions for the determination of kinetic constants used a fluorogenic peptide substrate, typically H-D-VLR-AFC (Falcipain-2, Falcipain-3, Vivapain-2), Z-FR-AFC (Cathepsin K, L, B), or KQKLR-AMC (Cathepsin S) and are determined in 100 mM sodium acetate, pH 5.5, containing 10 mM DTT and 0.5 mM CHAPS (Falcipain-2, Falcipain-3, Vivapain-2), and 100 mM sodium acetate, pH 5.5, containing 5 mM L-cysteine, 1 mM CHAPS and 5 mM EDTA (Cathepsin K, L, B), or 50 mM MES, pH 6.5, containing 0.5 mM CHAPS, 10 mM L-CYS, 5 mM EDTA (Cathepsin S). Stock substrate solutions are prepared at 20 mM in DMSO. The activity assays contained 30 uM substrate (Falcipain-2, Falcipain-3, Vivapain-2), 20 uM substrate (Cathepsin K), 25 uM substrate (Cathepsin B), 5 uM substrate (Cathepsin L), and 30 uM substrate (Cathepsin S). All assays contained 1% DMSO. […] All assays are conducted at ambient temperature as end point assays being quenched after 60 minutes with the exception of Cathepsin S at 90 minutes, with 16.6 uM E-64 in 1% DMSO. Product formation (AFC or AMC) is determined from fluorescence (excitation at 405 nm; emission at 530 nm, AFC, or excitation at 360 nm; emission at 460 nm, AMC) monitored with a LJL Aquest (Molecular Devices) fluorescent plate reader. In the case of kinetic reads (used in mechanism of action studies), the reaction is not quenched but is read in the plate reader every 3 minutes for approximately 90 minutes. In addition, the mechanism of action studies for Falcipain-2 utilize Z-LR-AMC as the substrate. Product formation is determined from the fluorescence of AMC, measured with a LJL Acquest (Molecular Devices) fluorescent plate reader (excitation at 360 nm; emission at 460 nm).
# (§3) Potential inhibitors are evaluated using the quenched read (endpoint) method. Assays are carried out in the presence of variable concentrations of test compound. Reactions are initiated by addition of enzyme and substrate to wells containing inhibitor stamped in 100% DMSO. For endpoint assays, the reaction is quenched with the addition of E64. Dose response data is fit to an IC50 curve with preset fitting tools according to equation 1:
# (§4) y=a+(b−a)/(1+(10^x/10^c)^d) (1)
# (§5) where y is the response at a particular inhibitor concentration x, a is the minimum response value, b is the maximum response value, c is the IC50, and d is the slope of the IC50 curve. Assuming the compound is a competitive inhibitor, the apparent KI can be calculated from IC50, as shown in equation 2: […]
# [2] = molecular target: Falcipain-3 (Plasmodium falciparum, UniProt Q8IIL0); assay: Falcipain-3 enzymatic assay (assay 1)
# Sequence of Falcipain-3 (Q8IIL0 243-492): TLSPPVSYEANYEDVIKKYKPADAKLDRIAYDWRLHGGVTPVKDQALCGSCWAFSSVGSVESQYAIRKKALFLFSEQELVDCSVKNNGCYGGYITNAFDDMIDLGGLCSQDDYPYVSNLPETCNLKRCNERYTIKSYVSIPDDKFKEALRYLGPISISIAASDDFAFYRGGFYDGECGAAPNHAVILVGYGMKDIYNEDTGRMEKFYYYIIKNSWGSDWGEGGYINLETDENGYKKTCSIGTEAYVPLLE
# Procedure: as §1, §2, §3, §4, §5
# [3] = molecular target: Cathepsin S (Homo sapiens, UniProt P25774); assay: Cathepsin S enzymatic assay (assay 1); settings: human recombinant enzyme, KQKLR-AMC substrate, pH 6.5
# Sequence of Cathepsin S (P25774 115-331): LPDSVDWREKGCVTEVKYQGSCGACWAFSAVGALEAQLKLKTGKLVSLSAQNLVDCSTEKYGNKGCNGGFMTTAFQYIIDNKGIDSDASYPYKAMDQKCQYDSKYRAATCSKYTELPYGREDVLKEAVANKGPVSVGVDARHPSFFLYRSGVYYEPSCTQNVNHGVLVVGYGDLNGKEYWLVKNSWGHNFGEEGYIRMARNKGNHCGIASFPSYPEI
# Procedure: as §1, §2, §3, §4, §5
# [4] = molecular target: T1, Cathepsin K (Homo sapiens, UniProt P43235); assay: Cathepsin K enzymatic assay (assay 1); settings: human recombinant enzyme, Z-FR-AFC substrate, pH 5.5
# T1 sequence (P43235 115-329): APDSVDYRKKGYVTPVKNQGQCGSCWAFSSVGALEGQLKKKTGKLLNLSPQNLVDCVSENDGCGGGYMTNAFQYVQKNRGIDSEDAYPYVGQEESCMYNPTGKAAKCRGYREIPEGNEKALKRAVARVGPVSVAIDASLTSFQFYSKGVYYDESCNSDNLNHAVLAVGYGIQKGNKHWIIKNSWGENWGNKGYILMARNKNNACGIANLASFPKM
# Procedure: as §1, §2, §3, §4, §5
# Sequence of Falcipain-2 (Q8I6U4 244-484): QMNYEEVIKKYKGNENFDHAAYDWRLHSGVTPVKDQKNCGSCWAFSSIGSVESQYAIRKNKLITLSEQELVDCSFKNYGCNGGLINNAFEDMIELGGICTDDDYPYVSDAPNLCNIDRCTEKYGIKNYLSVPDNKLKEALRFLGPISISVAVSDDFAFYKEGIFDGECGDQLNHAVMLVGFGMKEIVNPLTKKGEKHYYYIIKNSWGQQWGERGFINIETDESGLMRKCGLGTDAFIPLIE
Structure (SMILES),IC50 [1],IC50 [2],IC50 [3],"IC50 ([1]; parasitic recombinant enzyme, H-D-VLR-AFC substrate, pH 5.5, endpoint read, read-out: Falcipain-2 IC50)",IC50 [4],"IC50 ([2]; parasitic recombinant enzyme, H-D-VLR-AFC substrate, pH 5.5, endpoint read, read-out: Falcipain-3 IC50)"
"CN1CCC(CN2CCN(Cc3cccc(C(=O)NN(c4nc(C#N)ncc4Br)C4CCCCC4)c3)CC2)CC1 [Example 28, N′-(5-bromo-2-cyano-4-pyrimidinyl)-N′-cyclohexyl-3-({4-[(1-methyl-4-piperidinyl)methyl]-1-piperazinyl}methyl)benzohydrazide trifluoroacetate]",< 1 nM,2.5 to 15 nM,< 1000 nM,,,
"CN1CCN(C(=O)C2CCN(Cc3ccc(C(=O)NN(c4nc(C#N)ncc4Cl)C4CCOCC4)cc3)CC2)CC1 [Example 36, N′-(5-Chloro-2-cyano-4-pyrimidinyl)-4-({4-[(4-methyl-1-piperazinyl)carbonyl]-1-piperidinyl}methyl)-N′-(tetrahydro-2H-pyran-4-yl)benzohydrazide trifluoroacetate]",,15 to 150 nM,,< 1 nM,< 17 nM,
"CC(=O)N1CCC(N(NC(=O)c2ccc(CN3CCC(N4CCN(C)CC4)CC3)cc2)c2nc(C#N)ncc2Br)CC1 [Example 38, N′-(1-acetyl-4-piperidinyl)-N′-(5-bromo-2-cyano-4-pyrimidinyl)-4-{[4-(4-methyl-1-piperazinyl)-1-piperidinyl]methyl}benzohydrazide trifluoroacetate]",< 1 nM,,< 200 nM,,,2.5 to 15 nM
"CN1CCN(c2ccc(C(=O)NN(c3nc(C#N)ncc3Cl)C3CCCC3)cc2)CC1 [Example 52, N′-(5-chloro-2-cyano-4-pyrimidinyl)-N′-cyclopentyl-4-(4-methyl-1-piperazinyl)benzohydrazide trifluoroacetate]",< 1 nM,2.5 to 15 nM,< 200 nM,,,
"CN(Cc1ccc(C(=O)NN(c2nc(C#N)ncc2Cl)C2CCCC2)cc1)C1CCCCC1 [Example 53, N′-(5-chloro-2-cyano-4-pyrimidinyl)-4-{[cyclohexyl(methyl)amino]methyl}-N′-cyclopentylbenzohydrazide trifluoroacetate]",< 1 nM,2.5 to 15 nM,< 200 nM,,,
"CN(C)Cc1ccc(C(=O)NN(c2nc(C#N)ncc2Cl)C2CCCC2)cc1 [Example 54, N′-(5-chloro-2-cyano-4-pyrimidinyl)-N′-cyclopentyl-4-[(dimethylamino)methyl]benzohydrazide trifluoroacetate]",< 1 nM,2.5 to 15 nM,< 200 nM,,,
"CCCN(C)Cc1ccc(C(=O)NN(c2nc(C#N)ncc2Cl)C2CCCC2)cc1 [Example 55, N′-(5-chloro-2-cyano-4-pyrimidinyl)-N′-cyclopentyl-4-{[methyl(propyl)amino]methyl}benzohydrazide trifluoroacetate]",< 1 nM,2.5 to 15 nM,< 200 nM,,,
"CCCCCCN(C)Cc1ccc(C(=O)NN(c2nc(C#N)ncc2Cl)C2CCCC2)cc1 [Example 56, N′-(5-chloro-2-cyano-4-pyrimidinyl)-N′-cyclopentyl-4-{([hexyl(methyl)amino]methyl}benzohydrazide trifluoroacetate]",< 1 nM,2.5 to 15 nM,< 200 nM,,,
"CCCCN(C)Cc1ccc(C(=O)NN(c2nc(C#N)ncc2Cl)C2CCCC2)cc1 [Example 57, 4-{[butyl(methyl)amino]methyl}-N′-(5-chloro-2-cyano-4-pyrimidinyl)-N′-cyclopentylbenzohydrazide trifluoroacetate]",< 1 nM,2.5 to 15 nM,< 200 nM,,,
"CN(CCC(O)c1ccccc1)Cc1ccc(C(=O)NN(c2nc(C#N)ncc2Cl)C2CCCC2)cc1 (stereo not drawn) [Example 59, N′-(5-chloro-2-cyano-4-pyrimidinyl)-N′-cyclopentyl-4-{[(3-hydroxy-3-phenylpropyl)(methyl)amino]methyl}benzohydrazide trifluoroacetate]",< 1 nM,1 to 2.5 nM,< 200 nM,,,
"CN(CC(=O)N(C)C)Cc1ccc(C(=O)NN(c2nc(C#N)ncc2Cl)C2CCCC2)cc1 [Example 60, N^2-[(4-{[2-(5-chloro-2-cyano-4-pyrimidinyl)-2-cyclopentylhydrazino]carbonyl}phenyl)methyl]-N^1,N^1,N^2-trimethylglycinamide trifluoroacetate]",< 1 nM,2.5 to 15 nM,< 200 nM,,,
